ChEMBL document CHEMBL1144757, “Stylopeptide 2, a proline-rich cyclodecapeptide from the sponge Stylotella sp” (2008)
Where a SMILES comes first, the peptide text is derived from it.

Assays:
[1] = test system: Hs-578T; assay: Growth inhibition of human HS578T cells at 10 uM; type: functional
[2] = test system: BT-549; assay: Growth inhibition of human BT549 cells at 10 uM; type: functional

CC(C)C[C@@H]1NC(=O)[C@H]([C@@H](C)O)NC(=O)[C@@H]2CCCN2C(=O)[C@H](Cc2ccccc2)NC(=O)[C@@H]2CCCN2C(=O)[C@H](Cc2ccc(O)cc2)NC(=O)[C@@H]2CCCN2C(=O)[C@H](Cc2ccccc2)NC(=O)[C@@H]2CCCN2C(=O)[C@H](CC(C)C)NC1=O [STYLOPEPTIDE 2] (cyclo(FPTLLPFPYP))
inhibition at 10 µM [1]: 56%
inhibition at 10 µM [2]: 77%
